Measured values taken from PubChem BioAssay AID463203 (Broad Institute, 2010).
The source made the active and inactive calls.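 The calls were made as follows: active = more than half of replicate measurements showing over 20% loss of kinase signal relative to plate controls; inconclusive = some but at most half of replicates over 20% loss; inactive = no replicate over 20% signal loss.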

Molecular target: Glycogen synthase kinase-3 alpha (Homo sapiens) (UniProt P49840)
Assay: concentration-response blocking of human GSK3A – biochemical, luminescence, cell-free homogeneous, retest, dose response (AID 463203)
Conditions: GSK-3 alpha enzyme, ADP-Glo luminescence, 60 min

Sequence of Glycogen synthase kinase-3 alpha (Homo sapiens) (P49840 whole entry, looked up): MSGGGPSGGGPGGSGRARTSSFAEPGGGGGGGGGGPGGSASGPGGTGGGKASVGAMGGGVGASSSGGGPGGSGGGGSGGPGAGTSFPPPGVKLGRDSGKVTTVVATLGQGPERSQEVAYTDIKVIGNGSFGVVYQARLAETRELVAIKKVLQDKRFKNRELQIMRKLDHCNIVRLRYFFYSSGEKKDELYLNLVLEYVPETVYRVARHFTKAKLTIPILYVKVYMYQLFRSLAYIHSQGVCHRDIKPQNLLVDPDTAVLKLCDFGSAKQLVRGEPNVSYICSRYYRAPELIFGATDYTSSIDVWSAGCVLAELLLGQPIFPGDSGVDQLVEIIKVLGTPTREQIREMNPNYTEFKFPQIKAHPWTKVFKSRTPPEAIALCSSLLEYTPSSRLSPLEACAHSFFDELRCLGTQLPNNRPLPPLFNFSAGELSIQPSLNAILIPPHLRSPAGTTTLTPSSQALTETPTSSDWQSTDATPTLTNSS

Compound	AC50
S=C(Nc1ccc(Cl)cc1)Nc1cccc2cnccc12	> 30 µM (inactive)
COc1cccc(C2C3(C#N)C(N)=NC(OC)(OC)C23C#N)c1 (stereo unspecified)	> 30 µM (inactive)
COCCCNc1c2c(nc3nnnn13)CCCC2	> 30 µM (inactive)
COc1ccc(NC(=O)c2ccc(NCC3CCCO3)c([N+](=O)[O-])c2)cc1 (stereo unspecified)	> 30 µM (inactive)
Brc1cccc(CSc2nnc(-c3ccncc3)o2)c1	7.58 µM
COc1ccccc1C(=O)NNC(=O)c1cccc(Cl)c1	> 30 µM (inactive)
CN(c1ccccc1)c1nc(-n2ccnc2)nc(-n2ccnc2)n1	29.3 µM
CN(C(=O)/C=C/c1ccc2c(c1)OCO2)c1ccccc1	6.73 µM
O=C(COC(=O)c1ccc(F)cc1F)Nc1ccc(Cl)cn1	> 30 µM (inactive)
COc1cccc(-c2c(C(=O)N/N=C(\C)c3cccnc3)nnn2-c2nonc2N)c1	> 30 µM (inactive)
COc1cc(O)cc2c1C(=O)OC(C)CCCC(=O)CCC/C=C\2 (stereo unspecified)	> 30 µM (inactive)
Cc1cccc(NC(=O)COC(=O)c2ccccn2)c1	> 30 µM (inactive)
O=c1cc(-c2ccc(O)cc2)oc2c1ccc1ccccc12	1.33 µM
Cc1cccc(NC(=O)CSCc2nc3c(nnn3Cc3ccc(F)cc3)c(=O)[nH]2)c1C	> 30 µM (inactive)
C(=N\Nc1ncnc2sc3c(c12)CCC3)/c1ccncc1	5.85 µM
CC1(C)CC(=O)C(C(C2=C(O)CC(C)(C)CC2=O)c2cccc(O)c2)C(=O)C1 (stereo unspecified)	> 30 µM (inactive)
CN(C)c1ccc(/C=N/NC(=O)c2nnn(-c3nonc3N)c2CN(C)c2ccccc2)cc1	> 30 µM (inactive)
O=C(CCSc1nc(-c2ccco2)cc(C(F)(F)F)n1)NCc1cccs1	> 30 µM (inactive)
Cn1c(=O)c2[nH]c(CNc3ccc(C(=O)O)cc3)nc2n(C)c1=O	> 30 µM (inactive)
Cn1c(SCc2cnc(-c3ccccc3)s2)nnc1C1COc2ccccc2O1 (stereo unspecified)	> 30 µM (inactive)
COc1cc(-c2[nH]nc3c2C(c2ccoc2)C(C#N)=C(N)O3)cc(OC)c1OC (stereo unspecified)	26.1 µM
CCOC(=O)c1ccc(N2CSC3=C(C#N)C(c4ccc(OC)cc4OC)CC(=O)N3C2)cc1 (stereo unspecified)	> 30 µM (inactive)
Cc1ccc(C(=O)O/N=C(\N)c2cccc([N+](=O)[O-])c2)cc1	> 30 µM (inactive)
COc1ccc(COC(=O)C2=C(C)NC(=O)NC2c2ccc(F)cc2)cc1 (stereo unspecified)	> 30 µM (inactive)
COc1ccc(Br)cc1C(=O)Nc1cccc(NC(=O)c2ccco2)c1	> 30 µM (inactive)
CCc1c(C)c(C#N)c2nc3ccccc3n2c1NCc1ccccn1	16.8 µM

Compound	AC50
CCOC(=O)CSc1nc(N)c(C#N)c(-c2cccs2)c1C#N	> 30 µM (inactive)
NC(=O)c1cc(Br)cc2c3c([nH]c12)CCCC3	9.98 µM
Fc1ccccc1-c1nnc2ccc3ccccc3n12	> 30 µM (inactive)
O=C(Nc1ccccc1)c1ccc(CSc2ncccn2)cc1	> 30 µM (inactive)
Cc1c(O)ccc2c3c(c(=O)oc12)CCC(C)C3 (stereo unspecified)	> 30 µM (inactive)
Cc1ccccc1/C=N/Nc1nc2ccccc2[nH]1	> 30 µM (inactive)
CC(=O)Nc1ccc(C(=O)OCC(=O)Nc2c(C)n(C)n(-c3ccccc3)c2=O)cc1	> 30 µM (inactive)
COC1OC(COC(=O)c2ccccc2)C(OC(=O)c2ccccc2)C1OC(=O)c1ccccc1 (stereo unspecified)	> 30 µM (inactive)
COc1ccccc1/C=N/NC(=O)c1nnn(-c2nonc2N)c1-c1cccs1	0.779 µM
COC(=O)c1sc2nc(N3CCCCC3)c3c(c2c1N)CCCC3	> 30 µM (inactive)
O=C(c1ccc2c3n(nc2c1)-c1ccccc1CO3)N1CCOCC1	18.8 µM
COc1ccc(-c2cc(C(F)(F)F)nc(SCCC(=O)NCc3ccccc3)n2)cc1	> 30 µM (inactive)
N#CC1=C2SCN(Cc3ccco3)CN2C(=O)CC1c1c(F)cccc1Cl (stereo unspecified)	> 30 µM (inactive)
C=CCn1c(O)c(C=NC2CCN(Cc3ccccc3)CC2)c(=O)[nH]c1=O	> 30 µM (inactive)
CC(=O)c1sc(Nc2cccc(C)c2)nc1C	> 30 µM (inactive)
CCCCC(=O)Nc1nn(CCC)c2nc3ccccc3cc12	> 30 µM (inactive)
CC(C)(C)CNc1cc(N2CCCC2)ccc1[N+](=O)[O-]	> 30 µM (inactive)
NC(=O)N/N=C/c1c(O)ccc2oc3c(c12)CCCC3	0.845 µM
Cc1ccc2c(c1)Oc1ccc(NC(=O)CCl)cc1C(=O)N2	> 30 µM (inactive)
CCCCC(=O)Nc1sc2c(c1C(N)=O)CCC2	> 30 µM (inactive)
COc1cccc(CC(=S)N2CCOCC2)c1	> 30 µM (inactive)
CCSc1ccccc1C(=O)Nc1cccnc1	> 30 µM (inactive)
Cc1cc(N/N=C/c2ccccc2Br)nc2ccccc12	> 30 µM (inactive)
O=C(CSCc1ccccn1)Nc1ccccc1	> 30 µM (inactive)
CN(Cc1ccccc1)c1ncnc(N)c1[N+](=O)[O-]	18.8 µM
O=C1CCCC/C1=C\Nc1ccc(O)cc1	21.6 µM

Compound	AC50
CCOC(=O)c1cc(CC)sc1NC(=O)COC(=O)c1ccccn1	> 30 µM (inactive)
O=C(CSc1ccc2nnc(-c3ccccn3)n2n1)N1CCOCC1	> 30 µM (inactive)
CCOc1ccc2ccccc2c1/C=N/n1cncn1	> 30 µM (inactive)
O=C(NCC1CCN(Cc2ccccc2Cl)CC1)Nc1ccccc1F	> 30 µM (inactive)
N#CC1=C2SCN(c3ccccc3)CN2C(=O)CC1c1ccccc1Cl (stereo unspecified)	> 30 µM (inactive)
Oc1ccc(-c2nnc(-c3ccc(O)cc3)nn2)cc1	> 30 µM (inactive)
COc1ccccc1OCCNC(=O)C1CCN(C(C)=O)CC1	> 30 µM (inactive)
COC(=O)C1(C#N)C(c2ccccc2)C1(C(=O)OC)C(=O)OC (stereo unspecified)	> 30 µM (inactive)
Cn1c(N=Nc2ccccc2)nc2ccccc21	21.1 µM
N#CCCn1cc(C(=O)N2CCCCC2)c(-c2cccc([N+](=O)[O-])c2)n1	> 30 µM (inactive)
O=C(N/N=C/c1ccc(O)c(O)c1)NC12CC3CC(CC(C3)C1)C2	> 30 µM (inactive)
COc1ccc(OCc2nc(N)nc(Nc3ccc(C)cc3)n2)cc1	> 30 µM (inactive)
CC(=O)Nc1ccc(NC(=O)CSc2nc3[nH]ncc3c(=O)n2-c2ccccc2)cc1	> 30 µM (inactive)
CN(Cc1c(C(=O)N/N=C/c2ccc(O)cc2)nnn1-c1nonc1N)c1ccccc1	0.243 µM
Cc1ccc(OCC(=O)NNC(=O)C(C)Sc2ncnc3sc(C)c(C)c23)cc1 (stereo unspecified)	> 30 µM (inactive)
COc1ccc(CNc2ccc3cn[nH]c3c2)c(OC)c1OC	19.8 µM
Cc1ccc(-c2nc3ncccn3c2Nc2ccc3c(c2)OCCO3)cc1	> 30 µM (inactive)
CCOC(=O)c1c(NC(=S)N2CCOCC2)sc2c1CCN(C(=O)OCC)C2	> 30 µM (inactive)
Cc1ccc(N2CC(C(=O)Nc3ncc([N+](=O)[O-])s3)CC2=O)cc1 (stereo unspecified)	11.4 µM
O=C(O)c1ccc(N=Nc2c(O)[nH]c3ccc(Br)cc23)cc1	3.54 µM
COc1ccc(NC(=O)Nc2ccc(Br)c(C)c2)cc1	> 30 µM (inactive)
Clc1ccc(Nc2ncn[nH]2)cc1	> 30 µM (inactive)
Cc1cccc(C(=O)O/N=C(\N)c2cccc([N+](=O)[O-])c2)c1	> 30 µM (inactive)
Cc1ccccc1N=Nc1c(O)[nH]c2ccccc12	> 30 µM (inactive)
